According to patent US9573975B2, “Melanoma antigen peptide and uses thereof” (INSERM (INSTITUT NATIONAL DE LA SANTE ET DE LA RECHERCHE …, priority 2012, dated 2017):

Columns and labels:
[1] = test system: MELOE-1 specific T cell clones; experiment: HLA restriction of MELOE-1 specific T cell clones (anti-HLA blocking antibodies, HLA-matched B-EBV cell lines); format: cell-based, human
Description: FIG. 3: HLA-restricting element of MELOE-1 specific T cell clones and reactivity against HLA-matched melanoma cell lines. The HLA restriction of MELOE-1 specific T cell clones was first assessed using anti-HLA blocking antibodies (upper panel). T cell clones were stimulated for 5 hours in the presence of brefeldin A (10 μg/mL) either with peptide alone (10 μM) in an autopresentation assay and in presence or not of blocking antibodies at a concentration of 12.5 μg/mL. HLA restriction was confirmed with HLA-matched B-EBV cell lines pulsed 2 hrs with the cognate peptide, at a ratio 1:2 (middle panel). Reactivity of each T cell clone against HLA-class II expressing melanoma cells was assessed, in presence or not of exogeneous peptide (lower panel). After 5 hours of stimulation, cells were then stained with APC-conjugated anti-CD4 mAb, fixed with 4% paraformaldehyde, labeled with PE-conjugated anti-TNF-α mAb and analyzed by flow cytometry.
(§1) Lymphocytes were stimulated for 5 hours in the presence of brefeldin A (10 μg/mL) either with peptide alone (10 μM) in an autopresentation assay or with B-EBV or HLA-class II expressing melanoma cells pulsed 2 hours with the cognate peptide, at a ratio 1:2. In some experiments, blocking mAb against HLA-DP (clone B7.21 from Dr Charron, UMR940, Paris), HLA-DQ (clone SPVL3, Beckman Coulter) or HLA-DR (clone L243, BD Biosciences) were added at a concentration of 12.5 μg/ml. Cells were then stained with APC-conjugated anti-CD4 mAb, fixed with 4% paraformaldehyde, labeled with PE-conjugated anti-cytokine mAb and analyzed by flow cytometry.
In order to formally characterize the recognized epitopes, we derived CD4 T cell clones specific for each region of MELOE-1 by limiting dilution, from microcultures of healthy donors or melanoma patients, containing at least 0.5% of specific CD4 T cells. We succeeded to derive CD4 specific T cell clones from HD17, HD22, HD25 and Pt≠3 microcultures, which were reactive against MELOE-12-21 (HD22), MELOE-111-30 (HD17 and Pt≠3) and MELOE-126-46 (HD25). From each cloning experiment, we obtained between one and ten reactive CD4 T cell clones, that turned out to be the same clonotype after CDR3B sequencing (Table IV). A single CD4 T cell clone for each specificity was used for further experiments. The HLA-restriction was determined for each T cell clone, first by using HLA-class II blocking monoclonal antibodies (FIG. 3, upper panel), and further by testing the recognition of HLA-matched B-EBV cell lines loaded with each recognized long peptide (FIG. 3 middle panel). The two T cell clones named 9C12 and 4E2, derived from HD22 and HD25 and specific for MELOE-12-21 and MELOE-126-46 were restricted by the HLA-DQβ1*0202 and the DQβ1*0201 molecules respectively. […]

[2] = test system: CD4 T cells in PBMC from melanoma patients; experiment: PBMC from melanoma patients stimulated with MELOE-1, restimulated with peptides, CD4/IFN-γ and CD4/IL4 staining; format: cell-based, human; conditions: for Th1 responses, share of tested microcultures: of 576 tested microcultures, melanoma patients; for melanoma patients with CD4 specific responses (mainly Th1, IFN-g production) / melanoma patients with Th2 responses: responding/tested patients; for melanoma patients with Th2 responses: IL4
Description: FIG. 2: (A) Percentages of cytokine producing CD4 T cells among positive microcultures. Fourteen days after PBMC stimulation with MELOE-1 whole polypeptide (2-46), microcultures were re-stimulated with each indicated peptide during 5 hours. IFN-γ (left panel) and IL4 (right panel) production was then assessed by a triple labeling IFN-γ-IL4-CD4. Results were analyzed with a non-parametric test (Kruskal-Wallis) followed by a Dunns post-test. (B) Frequency of microcultures containing CD4 T cells specific for MELOE-1 peptides (assessed by IFN-γ or IL4 intracellular staining after re-stimulation with the 3 indicated peptides). 576 microcultures (from 10 melanoma patients) were analyzed by a contingency table followed by a Fisher exact test.
PBMC from melanoma patients were stimulated with 10 μM of MELOE-1. After 14 days, the presence of CD4 T cells specific for the different regions of MELOE-1 was assessed by restimulating cells with MELOE-12-21, MELOE-111-30 and MELOE-122-46 peptides, followed by CD4/IFN-γ double staining for the detection of Th1 responses, and by CD4/IL4 double staining for Th2 responses. Between brackets is indicated the mean % of cytokine producing CD4 T cells, in positive microcultures.
PBMC from healthy donors or melanoma patients (2·10^5 cells/well) were cultured for 14 days with 10 μM of MELOE-1 whole antigen (46 amino acids) in RPMI medium supplemented with 8% HS, 50 IU/ml of rIL-2 (Chiron, France) and L-Glutamin, in 96-well multiplates. Micro cultures were then restimulated individually with each overlapping peptide (MELOE-12-21, MELOE-111-30, MELOE-118-37, MELOE-126-46 or MELOE-122-46 for melanoma patients) in the presence of 10 μg/mL brefeldin A for 5 hours and the percentage of CD4^+ specific T cells was assessed by TNF-α, IFN-γ or IL-4 intracellular staining A negative control without peptide was included in all experiments.
as §1
In order to confirm the immunogenicity of each MELOE-1 regions in melanoma patients, we stimulated melanoma patients PBMC with the MELOE-1 whole protein, and tested the reactivity of stimulated lymphocytes towards the three most immunogenic regions: 2-21, 11-30, and 22-46. For this study, instead of challenging microcultures with the 18-37 peptide, that appeared poorly immunogenic, we extended the C-terminus region from 26-46 to 22-46, in order to also detect responses to our previously described HLA-DR11-restricted epitope (24-37). […] We tested the induction of CD4 specific responses from MELOE-1 stimulated PBMC of 10 melanoma patients. We documented CD4 responses specific for the central region of MELOE-1 (11-30) for 7/9 patients, whereas responses specific for MELOE-12-21 and MELOE-122-46 were respectively detected in 4/9 and 5/9 patients (Table III). These responses were mainly Th1 responses (IFN-g production) while less frequent Th2 responses specific for the three regions of MELOE-1 were detected in 3/9 patients for MELOE-12-21, 2/9 patients for MELOE-111-30 and 5/9 patients for MELOE-122-46 (Table III). […] Concerning Th2 responses, much less frequent, the C-term region appeared to induce more frequently the growth of IL-4 producing CD4 T cells than the two other regions (FIG. 2A). […]

| Sequence | HLA-restricting element of the peptide-specific T cell clone ([1]; T cell clone 9C12 (from HD22)) | mean % of cytokine producing CD4 T cells, in positive microcultures (IFN-γ, Th1) ([2]; Pt ≠ 1) | mean % of cytokine producing CD4 T cells, in positive microcultures (IFN-γ, Th1) ([2]; Pt ≠ 2) | mean % of cytokine producing CD4 T cells, in positive microcultures (IFN-γ, Th1) ([2]; Pt ≠ 3) | mean % of cytokine producing CD4 T cells, in positive microcultures (IL4, Th2) ([2]; Pt ≠ 4) | mean % of cytokine producing CD4 T cells, in positive microcultures (IFN-γ, Th1) ([2]; Pt ≠ 5) | mean % of cytokine producing CD4 T cells, in positive microcultures (IL4, Th2) ([2]; Pt ≠ 5) | mean % of cytokine producing CD4 T cells, in positive microcultures (IL4, Th2) ([2]; Pt ≠ 9) | Th1 responses, share of tested microcultures [2] | melanoma patients with CD4 specific responses (mainly Th1, IFN-g production) [2] | melanoma patients with Th2 responses [2] | HLA-restricting element of the peptide-specific T cell clone ([1]; T cell clone 1A5) | HLA-restricting element of the peptide-specific T cell clone ([1]; T cell clone 5F9) | mean % of cytokine producing CD4 T cells, in positive microcultures (IL4, Th2) ([2]; Pt ≠ 1) | mean % of cytokine producing CD4 T cells, in positive microcultures (IFN-γ, Th1) ([2]; Pt ≠ 4) | mean % of cytokine producing CD4 T cells, in positive microcultures (IFN-γ, Th1) ([2]; Pt ≠ 6) | mean % of cytokine producing CD4 T cells, in positive microcultures (IFN-γ, Th1) ([2]; Pt ≠ 8) |
| --- | --- | --- | --- | --- | --- | --- | --- | --- | --- | --- | --- | --- | --- | --- | --- | --- | --- |
| SCVGYPDEATSREQFLPSEG (SCVGYPDEATSREQFLPSEC) [MELOE-12-21] | HLA-DQβ1*0202 | (0.7%) | (0.8% ± 0.2) | (1.7% ± 2.9) | (0.7%) | (0.6%) | (0.7% ± 0.1) | (0.6%) | 3.3% | 4/9 | 3/9 |  |  |  |  |  |  |
| TSREQFLPSEGAACPPWHPS [MELOE-111-30] |  | (1.4% ± 0.7) | (1.6% ± 1.2) | (16.2% ± 33.2) |  | (1.5% ± 1.1) |  | (0.6% ± 0.09) | 10.8% | 7/9 | 2/9 | HLA-DRβ1*1101 | HLA-DRβ1*0101 | (1%) | (0.9% ± 0.5) | (1.5% ± 1.9) | (2.9% ± 0.04 ) |
